Molecular target: T1, thiaminase I from C. botulinum (BcmE) (Clostridium botulinum, UniProt A5HZW3)
T1 construct: gene CBO0770
Experiment: biochemical

T1 sequence (A5HZW3 1-404): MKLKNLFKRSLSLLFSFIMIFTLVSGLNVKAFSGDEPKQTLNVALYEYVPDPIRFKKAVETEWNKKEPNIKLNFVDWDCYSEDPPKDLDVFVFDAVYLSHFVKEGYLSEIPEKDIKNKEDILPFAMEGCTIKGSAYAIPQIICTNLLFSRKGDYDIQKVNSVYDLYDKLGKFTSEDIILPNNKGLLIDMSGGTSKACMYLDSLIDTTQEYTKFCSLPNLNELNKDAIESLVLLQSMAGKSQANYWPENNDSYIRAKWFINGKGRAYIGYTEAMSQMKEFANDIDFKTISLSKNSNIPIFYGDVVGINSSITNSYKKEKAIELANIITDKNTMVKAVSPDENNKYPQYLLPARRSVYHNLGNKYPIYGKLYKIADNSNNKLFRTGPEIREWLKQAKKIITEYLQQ

`O=C1O[C@H]([C@@H](O)CO)C(O)=C1O` [ascorbic acid] showed an IC50 of 266 nM.

Source: PMC10147936, “Dietary factors potentially impacting thiaminase I-mediated thiamine deficiency” (Scientific Reports, 2023)
